Laboratory results as given in patent publication US9758477B2, “Sulfamoylbenzamide derivatives as antiviral agents against HBV infection” (priority 2011, dated 2017).
Like-named read-outs stand apart in the source and are kept apart here.

Experiments:
[1] = Cytotoxicity in HepDES19 cells, MTT assay; type: cell-based; details: human, Table 10, HepDES19 cells, unit inferred
Protocol: Determination of cytotoxicity of compounds of the disclosure in human hepatoma-derived cell lines, HepDES19 cells were seeded into 96-well plates at a density of […] cells per well and cultured in DMEM/F12 media with 10% fetal bovine serum in the absence of tetracycline. One day after seeding, cells were left untreated or treated with a serial dilution of testing compounds, ranging from 50 μM to 0.39 μM, for 6 days. The cell viability was measured by a MTT assay, following procedure provided by the manufacturer (Promega). The cytotoxicity of a compound was expressed as the concentration of compound that reduces the viability of the cells by 50% (CC50).

[2] = system: HBV; experiment: Antiviral efficacy in AML12HBV10 cells, HBV DNA by dot-blot hybridization; type: cell-based, Hepatitis B virus (HBV); details: Hepatitis B virus
Protocol: The antiviral efficacy of the compounds of the disclosure, as presented in Tables 5, 6, 7, 8 and 9, were determined in AML12HBV10 cells. AML12HBV10 is an immortalized murine hepatocyte (AML12)-derived stable cell line that supports robust HBV replication in a tetracycline inducible manner (Xu et al.). The cells were seeded into 96 well plates at a density of 2×10^4 cells per well and cultured in DMEM/F12 media with 10% fetal bovine serum in the absence of tetracycline to allow pgRNA transcription and HBV DNA replication. One day after seeding, cells were left untreated or treated with a serial dilution of testing compounds, ranging from 50 μM to 0.39 μM, for 48 hours. Cells were then lysed by adding into each well of 100 μl lysis buffer containing 10 mM Tris-HCl (pH 7.6), 1 mM EDTA, 100 mM NaCl and 1% NP-40 and incubated at 37° C. for 30 minutes. Half amount (50 μl) of cell lysate from each well was combined with equal volume of denaturing solution containing 0.5N NaOH and 1.5M NaCl. After 5 minute incubation, 100 μl of neutralization solution (IM Tris-HCl, pH 7.4, 1.5M NaCl) was added into each well. The denatured cell lysates (totally 200 μl) were applied onto Nylon membrane using 96-well dot-blot manifold (Biorad). HBV DNA in the cell lysates were determined by dot-blot hybridization with alpha-^32P-UTP-labelled riboprobe specific for HBV minus strand DNA. The antiviral efficacy of a compound of the disclosure was expressed as the concentration that reduces the amount of HBV DNA by 50% (EC50).

[3] = system: AML12HBV10 cells; experiment: Cytotoxicity in AML12HBV10 cells, MTT assay; type: cell-based, murine; details: Table 10, AML12HBV10 cells, unit inferred; read-out: AML12HBV10 CC50
Protocol: (§1) Determination of cytotoxicity of compounds of the disclosure in AML12HBV10 cells: To determine the cytotoxicity of the compounds, AML12HBV10 cells were seeded into 96-well plates at a density of 2×10^4 cells per well and cultured in DMEM/F12 media with 10% fetal bovine serum in the absence of tetracycline to allow pgRNA transcription and HBV DNA replication. One day after seeding, cells were left untreated or treated with a serial dilution of testing compounds, ranging from 50 μM to 0.39 μM, for 48 hours. The cell viability was measured by a MTT assay, following procedure provided by the manufacturer (Promega). The cytotoxicity of a compound was expressed as the concentration of compound that reduces the viability of the cells by 50% (CC50).

[4] = Cytotoxicity in AML12HBV10 cells, MTT assay; type: cell-based, murine; details: mouse; AML12HBV10 cells, 48 hours, MTT; read-out: CC50 (cellular toxicity)
Protocol: as §1

[5] = system: encapsidated pgRNA; experiment: Encapsidated pgRNA by Northern blot in AML12HBV10 cells; type: cell-based, Hepatitis B virus (HBV); details: 2 days, FIG. 3 panel C, Bay41-4109 5 μM, AT-61 25 μM
Protocol: To obtain mechanistic insight of the compounds of present invention against HBV, AML12HBV10 cells cultured in the 12-well plates were treated with a series of concentrations of DVR-1, DVR-56 or DVR-23 for two days in the absence of tetracycline (Guo et al., 2007). As positive controls, the cells were also treated with Bay41-4109 (5 μM) or AT-61 (25 μM), the known HBV nucleocapsid assembly effectors that either bind to HBV core protein dimmer to misdirect its interaction and prevent capsid formation (Bay41-4109) (Deres et al., 2003: Stray and Zlotnick, 2006), or interact with a core assembly intermediate and promote the formation of empty capsids (AT-61) (Feld et al., 2007; Katen et al., King et al., 1998). The amounts of intracellular viral mRNA, encapsidated pgRNA, capsids and nucleocapsid-associated HBV DNA were analyzed with the methods detailed below.
Determination of encapsidated pgRNA: AML12HBV10 cells were lysed by addition of 600 μl of lysis buffer (50 mM Tris-HCl [pH 7.5], 1 mM EDTA, 150 mM NaCl, 1% NP-40) into each well of 12-well plates. The nuclei were removed by centrifugation at 5,000 g for 10 minutes. One-half of the sample was mixed with 6 U of micrococcal nuclease (Pharmacia) and 15 μl of 100 mM CaCl2 and incubated for 15 minutes at 37° C. to digest free nucleic acids. The reaction was stopped with 6 μl of 0.5 M EDTA, and capsids were precipitated by adding 125 μl of 35% polyethylene glycol 8000 in 1.75 M NaCl to the reaction and incubating in ice for 30 minutes, followed by centrifugation at 6,000 g for 10 minutes at 4° C. Pellets were re-suspended in 50 μl of TNE buffer (10 mM Tris-HCl [pH 8], 100 mM NaCl, 1 mM EDTA), pgRNA was extracted by the addition of 1 ml of Trizol reagent. The encapsidated pgRNA were electrophoresed through a 2.2 M formaldehyde-1% agarose gel, transferred to a nylon membrane, and immobilized by UV cross-linking (Stratagene). Hybridization was performed with an alpha-^32P-UTP labeled riboprobe specific for plus strand of HBV genome.

[6] = AML12HBV10 cells, 48 hours, concentration reducing HBV DNA by 50%, read-out: EC50 (antiviral activity by dot blot hybridization)
[7] = Table 10, AML12HBV10 cells, unit inferred, read-out: AML12HBV10 EC50

SMILES | CC50 at 6 days [1] [nM] | EC50 [2, 6] [nM] | EC50 [2, 7] [nM] | CC50 [3] [nM] | CC50 at 48 h [4] [nM] | level of encapsidated pgRNA [5]
CCC(C)NS(=O)(=O)c1ccc(F)c(C(=O)Nc2ccc(F)c(F)c2)c1 (stereo not drawn) [DVR-23, 5-sec-butylsulfamoyl-N-(3,4-difluoro-phenyl)-2-fluoro-benzamide] | > 50000 | 390 | 390 | > 50000 | > 50000 | dose-dependently reduced
O=C(Nc1ccc(F)c(F)c1)c1cc(S(=O)(=O)NC2CCCC2)ccc1F [DVR-56, 5-cyclopentylsulfamoyl-N-(3,4-difluoro-phenyl)-2-fluoro-benzamide] | > 50000 | 390 | 390 | > 50000 | > 50000 | dose-dependently reduced
